In the METLIN SMRT retention time set (Domingo-Almenara et al. 2019):

Experiment: gradient 5% acetonitrile 3 min, to 50% in 2 min, to 85% in 15 min, held 3 min, 100 µL/min
Settings: column: Zorbax Extend-C18 2.1 x 50 mm; eluents: water / acetonitrile, 0.1% formic acid
How it was run: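 Retention times of pure standards were taken from adduct peaks that were selected by computer and manually inspected. Over 3 months, mixtures of ~100 molecules were run by HPLC–quadrupole time-of-flight mass spectrometry in positive and negative ionization mode. The Zorbax Extend-C18 column (2.1 × 50 mm, 1.8 μm) ran at 100 μL/min in water and acetonitrile, each containing 0.1% formic acid, with 40 μL dead volume and 900 μL dwell volume.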

| SMILES | RP-LC retention time |
| --- | --- |
| CC(C)OCCCNC(=O)C1Cn2cccc2C(=O)N1 (stereo not given) | 602 s |
| Cc1cc(F)ccc1NS(=O)(=O)c1c[nH]c2ncccc12 | 735 s |
| O=C(CSC1CCc2ccccc2NC1=O)Nc1ccc(F)c(Cl)c1 (stereo not given) | 873 s |
| CCN(C(=O)CC(=O)OC)c1nc(-c2ccc(C)cc2)cs1 | 1070 s |
| COc1cc(-c2oc3cc(O)cc(O)c3c(=O)c2O[C@@H]2O[C@H](CO)[C@@H](O)[C@H](O)[C@H]2O)cc(OC)c1O | 619 s |
| CN(C)CC1(O)CCC2(CCN(C(=O)CC3CCCC3)CC2)CC1 | 598 s |
| Cc1nc(-c2cnccn2)n(CC(=O)Nc2cccc(C(C)C)c2)c(=O)c1C | 855 s |
| CCn1c(=O)n(CC(=O)NCCC(C)C)c(=O)c2cnc(-c3ccccc3)nc21 | 678 s |
| O=C(C1CCN(c2nccnc2Sc2ccccc2)CC1)N1CCN(c2ccccn2)CC1 | 682 s |
| O=C(NCc1ccco1)c1ccc(Cn2nc(N3CCN(c4ccc(F)cc4)CC3)ccc2=O)o1 | 820 s |
| NC(=O)c1c(NC(=O)C2CCCN(C(=O)c3cc(F)cc(F)c3)C2)sc2c1CCCC2 (stereo not given) | 1230 s |
| O=C(Cc1cccc(F)c1)Nc1cc(-c2cccs2)no1 | 947 s |
| c1ccc2sc(C3(NCC4CC4)CCCCC3)cc2c1 | 799 s |
| CCc1cccc(C)c1NC(=O)Cn1ncc2c(N3CCN(c4ccccn4)CC3)ncnc21 | 570 s |
| CCc1nc(-c2csc(S(=O)(=O)N3CCC(C(=O)N4CCCCCC4)CC3)c2)no1 | 955 s |
| COc1ccc(-n2c(=O)n(C)c(=O)c3cc(C(=O)NC(C)c4ccccc4)cnc32)cc1 (stereo not given) | 871 s |
| Cc1ccccc1OCc1ccc(-c2nc(C#N)c(NCCN(C)C)o2)o1 | 707 s |
| Cc1ccc(CNC(=O)c2cn3c(n2)COCC3)cc1C | 704 s |
| CCOC(=O)C1CCc2sc(NC(=O)CCn3cnc4ccccc4c3=O)nc21 (stereo not given) | 690 s |
| Cc1ccc(N(C)S(=O)(=O)c2cc(-c3[nH]ncc3C(=O)N3CCCC3)oc2C)cc1 | 776 s |
| O=C(O)c1cn(-c2ccc3c(c2)CCC3)nn1 | 768 s |
| CCn1cc(S(=O)(=O)N2CC(Oc3ccc(-c4nc(C)no4)cc3)C2)cn1 | 844 s |

| SMILES | RP-LC retention time |
| --- | --- |
| O=C(c1cc(-c2ccccn2)n[nH]1)N1CCCC(C(=O)N2CCc3ccccc32)C1 (stereo not given) | 713 s |
| Cc1noc(-c2ccc(OC3CN(S(=O)(=O)c4cccc5nsnc45)C3)cc2)n1 | 932 s |
| O=C(C1CCc2nc(N3CCCC3)ncc2C1)N1CCN(Cc2ccc3c(c2)OCO3)CC1 (stereo not given) | 566 s |
| CC(C)(C)NC(=O)c1ccc(-n2cc(CNC(=O)C3CC3)cn2)cc1 | 711 s |
| O=C(c1cn2ccnc(-c3ccc(F)cc3)c2n1)N1CCN(c2ncccn2)CC1 | 756 s |
| O=C(CSc1nc(-c2ccccc2)cs1)NCc1ccco1 | 839 s |
| CCOC(=O)N1CCN(c2ncc(S(=O)(=O)c3ccc(C)cc3)c(N)n2)CC1 | 875 s |
| O=C(NCCN1CCOCC1)c1cc2n(n1)CCCN(Cc1ccc(F)cc1)C2=O | 606 s |
| CCc1nc(-c2ccc(S(=O)(=O)N3CCC(C(=O)N4CCc5ccccc54)CC3)cc2)no1 | 802 s |
| Cc1ccc(S(=O)(=O)NCc2c(-c3ccccc3)nc3sc(C)nn23)c(C)c1 | 922 s |
| Cc1sc(-c2cc(C(F)(F)F)[nH]n2)cc1S(=O)(=O)N1CCN(C2CCCCC2)CC1 | 726 s |
| O=C(NCc1ccccn1)C1=C2CCCN2c2ccc(F)cc2S1(=O)=O | 1030 s |
| CCc1nc(N)n(CC(=O)Nc2ccc(C)cc2C)c(=O)c1C | 659 s |
| O=C(C1CC(=O)N(c2n[nH]c3cccc(F)c23)C1)N1CCN(Cc2ccccc2)CC1 (stereo not given) | 598 s |
| O=C(NCCc1c[nH]c2ccccc12)c1ccc(N2C(=O)CCS2(=O)=O)cc1 | 728 s |
| CCOc1ccc(NC(=O)CSc2cc(N3CCN(c4ccc(OC)cc4)CC3)ncn2)cc1 | 1160 s |
| COc1ccc(NC(=O)Cn2nc3nc(N4CCCC(C)C4)ccn3c2=O)cc1Cl (stereo not given) | 717 s |
| O=C(NCC(O)Cc1ccccc1)c1cccc(Cl)c1 (stereo not given) | 757 s |
| CCSC1=NCCN1C(=O)c1ccc(C(F)(F)F)cc1 | 679 s |
| Clc1cc(Br)ccc1-c1ccc(CNCc2cccnc2)o1 | 664 s |
| O=C(CN1C(=O)CCCc2cc(S(=O)(=O)N3CCCC3)ccc21)NCc1ccc(F)cc1 | 792 s |
| O=C(NCCCN1CCOCC1)C1c2ccccc2C(=O)N(C2CCCC2)C1c1cccs1 (stereo not given) | 646 s |

Now from value to molecule:

| RP-LC retention time | SMILES |
| --- | --- |
| 713 s | CSc1ccc(NC(=O)N2CCC(c3cc(N)on3)CC2)cc1 |
| 1010 s | CC1CCN(c2cc3c(cc2NC(=O)C(C)(C)C)n(C)c(=O)c(=O)n3C)CC1 |
| 794 s | O=C(C1CC1)N1CCc2sc(S(=O)(=O)NCc3cccs3)cc2C1 |
| 664 s | Cn1c(SCC(=O)N2CCCCC2)nnc1-c1ccc2c(c1)OCCCO2 |
| 934 s | Cc1csc(-c2cc(S(=O)(=O)NC3CCCC3)cn2CC(=O)N2CCCCC2)n1 |
| 653 s | CCCNC(=O)N1CCC(N2CCN(Cc3ccccc3)C(=O)C2=O)CC1 |
| 644 s | CC(C)CCC(=O)N1CCC2(CC1)CC(O)CCO2 (stereo not given) |
| 918 s | CC1(C)O[C@H]2CC(=O)OC[C@]23[C@H]2CC[C@@]4(C)[C@H](c5ccoc5)OC(=O)C5O[C@]54[C@]2(C)C(=O)C[C@@H]13 (stereo not given in full) |
| 792 s | Cc1noc(C2CN(C(=O)Nc3ccc(Cl)cc3C)CC23CCOCC3)n1 (stereo not given) |
| 1130 s | COC(=O)c1cc(C2CC2)nc2c1c(=O)n(Cc1cccc(F)c1)c(=O)n2C |
| 821 s | Cn1nc(-c2nc(C3CC3)no2)c2c1CCN(C(=O)c1ccccc1Br)C2 |
| 732 s | Cc1ccc(CNC(=O)C2CC(=O)N(c3ccc4oc(C)nc4c3)C2)cc1 (stereo not given) |
| 839 s | Cc1ccc(CNC(=O)c2ccc3c(c2)nc2n3CCN(C3CCCCC3)C2=O)cc1 |
| 887 s | CCC(C)NC(=O)C1(c2ccc(NS(=O)(=O)CC)cc2)CCCCC1 (stereo not given) |
| 788 s | COc1ccc(S(=O)(=O)N2CC(F)(F)C[C@H]2c2nnc(C)o2)cc1 |
| 962 s | CC(C)C(NC(=O)C1CCCN(S(=O)(=O)Cc2ccccc2)C1)C(C)C (stereo not given) |
| 822 s | CCOC(=O)C1CCN(c2cc3c(cc2NC(=O)CC(C)C)n(C)c(=O)c(=O)n3C)CC1 |
| 658 s | O=C(Nc1nccs1)C1CCN(C(=O)c2ccc([N+](=O)[O-])o2)CC1 |
| 667 s | CC1CCc2onc(C(=O)N3CCN(Cc4ccc5c(c4)OCO5)CC3)c2C1 (stereo not given) |
| 790 s | CCOc1ccccc1C(=O)N1CCC2(CC1)NC(=O)c1ccc(Cl)cc1N2 |
| 825 s | O=C(CN1C(=O)NC2(CCCCC2)C1=O)Nc1ccc(Cl)cc1 |
